The IC50 is the point on the concentration scale where inhibition reaches its midpoint.

Molecules are shown by their SMILES.

One experiment deals with SK-MEL-28. Nature of the experiment: Cytotoxicity against human SK-MEL-28 cells after 72 hrs by MTS assay. In kind it is functional, cell-based. The note with it: SK-MEL-28, 72 h. In general terms: Formazan colour is commonly taken as a measure of viable cells.
The nature of experiment [1]: Cytotoxicity against human JMAR cells after 72 hrs by MTS assay. It counts as functional, cell-based.
A further experiment concerns MRC5. The experiment in a line: Cytotoxicity against human MRC5 cells after 72 hrs by MTS assay. In kind it is cell-based. The note with it: MRC5, 72 h.
The nature of experiment [2]: Cytotoxicity against human DRO 81-1 cells after 72 hrs by MTS assay. In kind it is functional, cell-based.
In the next experiment the test system is MDA-MB-231. Nature of the experiment: Cytotoxicity against human MDA-MB-231 cells after 72 hrs by MTS assay. It counts as functional, cell-based. The note with it: MDA-MB-231, 72 h.

As for `CC1=C(CO)C(=O)O[C@@H]([C@@H](C)[C@H]2CC[C@H]3[C@@H]4C[C@H]5O[C@]56[C@@H](O)C=CC(=O)[C@]6(CO)[C@H]4CC[C@]23C)C1`, the IC50 with SK-MEL-28 was 1600 nM; in experiment [1], 3100 nM; with MRC5, 5300 nM; in experiment [2] it was 1700 nM; in the experiment on MDA-MB-231 it was 1500 nM.
Turning to `CC(=O)OCC1=C(C)C[C@H]([C@@H](C)[C@H]2CC[C@H]3[C@@H]4C[C@H]5O[C@]56[C@@H](OC(C)=O)C=CC(=O)[C@]6(COC(C)=O)[C@H]4CC[C@]23C)OC1=O`, the IC50 in the experiment with SK-MEL-28 was determined as 110 nM; in experiment [1] it was 655 nM; with MRC5 it was 310 nM; in experiment [2] it was 110 nM; in the experiment with MDA-MB-231, 655 nM.
Consider `CC(=O)OCC1=C(C)C[C@H]([C@@H](C)[C@H]2CC[C@H]3[C@@H]4C[C@H]5O[C@]56[C@@H](OC(C)=O)C=CC(=O)[C@]6(CO)[C@H]4CC[C@]23C)OC1=O`, for which the IC50 came out at 170 nM with SK-MEL-28; 600 nM in experiment [1]; 295 nM in the experiment with MRC5; 58 nM in experiment [2]; 635 nM with MDA-MB-231.
With `CC(=O)OC[C@]12C(=O)C=C[C@H](OC(=O)c3ccc(Cl)cc3)[C@]13O[C@@H]3C[C@H]1[C@@H]3CC[C@H]([C@H](C)[C@H]4CC(C)=C(COC(=O)c5ccc(Cl)cc5)C(=O)O4)[C@@]3(C)CC[C@@H]12`, the IC50 (in the experiment on SK-MEL-28; in experiment [1]; with MRC5; in experiment [2]; in the experiment with MDA-MB-231) was at least 10000 nM throughout.
With `CC(=O)OCC1=C(C)C[C@H]([C@@H](C)[C@H]2CC[C@H]3[C@@H]4C[C@H]5O[C@]56[C@@H]5C=CC(=O)[C@]6(COC(=O)CC/C=C/CCC(=O)O5)[C@H]4CC[C@]23C)OC1=O`, the IC50 is 205 nM in the experiment on SK-MEL-28; 965 nM in experiment [1]; 360 nM in the experiment with MRC5; 225 nM in experiment [2]; 245 nM in the experiment with MDA-MB-231.
Consider `C=CCCC(=O)OC[C@]12C(=O)C=C[C@H](OC(=O)CCC=C)[C@]13O[C@@H]3C[C@H]1[C@@H]3CC[C@H]([C@H](C)[C@H]4CC(C)=C(COC(C)=O)C(=O)O4)[C@@]3(C)CC[C@@H]12`, for which the IC50 stood at 470 nM with SK-MEL-28; 1440 nM in experiment [1]; 865 nM in the experiment with MRC5; 580 nM in experiment [2]; 625 nM in the experiment on MDA-MB-231.
The matching figures for `CC(=O)OCC1=C(C)C[C@H]([C@@H](C)[C@H]2CC[C@H]3[C@@H]4C[C@H]5O[C@]56[C@@H](OC(C)=O)C=C(I)C(=O)[C@]6(COC(C)=O)[C@H]4CC[C@]23C)OC1=O`: 275 nM, 830 nM, 475 nM, 115 nM and 210 nM.
Turning to `CC1=C(CO)C(=O)O[C@@H]([C@@H](C)[C@H]2CC[C@H]3[C@@H]4C[C@H]5O[C@]56[C@@H](O)C=C(I)C(=O)[C@]6(CO)[C@H]4CC[C@]23C)C1`, the IC50 with SK-MEL-28 is 9110 nM; in experiment [1], over 10000 nM; with MRC5 it was 9100 nM; in experiment [2], 5250 nM; with MDA-MB-231 it was over 10000 nM.
With `CC(=O)OCC1=C(C)C[C@H]([C@@H](C)[C@H]2CC[C@H]3[C@@H]4C[C@@H](OC(C)=O)C5=CC=CC(=O)[C@]5(COC(C)=O)[C@H]4CC[C@]23C)OC1=O`, the IC50 (with SK-MEL-28; in experiment [1]; in the experiment on MRC5; in experiment [2]; with MDA-MB-231) was at least 10000 nM in each case.
Consider `CC(=O)OCC1=C(C)C[C@H]([C@@H](C)[C@H]2CC[C@H]3[C@@H]4C[C@@H](O)[C@@]5(Cl)CC=CC(=O)[C@]5(COC(C)=O)[C@H]4CC[C@]23C)OC1=O`, for which the IC50 was determined as 1170 nM in the experiment with SK-MEL-28; 2160 nM in experiment [1]; 3150 nM in the experiment with MRC5; 1350 nM in experiment [2]; 800 nM in the experiment on MDA-MB-231.
The matching figures for `CC(=O)OCC1=C(C)C[C@H]([C@@H](C)[C@H]2CC[C@H]3[C@@H]4C[C@@H](O)C5=CC=CC(=O)[C@]5(COC(C)=O)[C@H]4CC[C@]23C)OC1=O`: at least 10000 nM, at least 10000 nM, at least 10000 nM, at least 10000 nM and at least 10000 nM.
Regarding `CC(=O)OCC1=C(C)C[C@H]([C@@H](C)[C@H]2CC[C@H]3[C@@H]4C[C@H]5O[C@]56CC=CC(=O)[C@]6(COC(C)=O)[C@H]4CC[C@]23C)OC1=O`, the IC50 in the experiment on SK-MEL-28 came to 710 nM; in experiment [1] it was 1220 nM; in the experiment with MRC5, 2050 nM; in experiment [2] it was 1100 nM; in the experiment with MDA-MB-231, 790 nM.
With `CC(=O)OCC1=C(C)C[C@H]([C@@H](C)[C@H]2CC[C@H]3[C@@H]4C[C@H]5O[C@]56[C@@H](OC(=O)N(C)C)C=CC(=O)[C@]6(COC(C)=O)[C@H]4CC[C@]23C)OC1=O`, the IC50 with SK-MEL-28 turned out to be 205 nM; in experiment [1], 970 nM; with MRC5, 510 nM; in experiment [2], 86.5 nM; with MDA-MB-231, 175 nM.
Turning to `CC1=C(CO)C(=O)O[C@@H]([C@@H](C)[C@H]2CC[C@H]3[C@@H]4C[C@H]5O[C@]56[C@@H](OC(=O)N(C)C)C=CC(=O)[C@]6(CO)[C@H]4CC[C@]23C)C1`, the IC50 in the experiment with SK-MEL-28 stood at 515 nM; in experiment [1], 2090 nM; with MRC5 it was 1750 nM; in experiment [2] it was 585 nM; with MDA-MB-231, 610 nM.
Turning to `CC1=C(COC(=O)c2ccc(Cl)cc2)C(=O)O[C@@H]([C@@H](C)[C@H]2CC[C@H]3[C@@H]4C[C@H]5O[C@]56[C@@H](OC(=O)c5ccc(Cl)cc5)C=CC(=O)[C@]6(COC(=O)c5ccc(Cl)cc5)[C@H]4CC[C@]23C)C1`, the IC50 (in the experiment on SK-MEL-28; in experiment [1]; with MRC5; in experiment [2]; in the experiment on MDA-MB-231) was at least 10000 nM each time.
Consider `CC1=C(COC(=O)c2ccc(Cl)cc2)C(=O)O[C@@H]([C@@H](C)[C@H]2CC[C@H]3[C@@H]4C[C@H]5O[C@]56[C@@H](OC(=O)c5ccc(Cl)cc5)C=CC(=O)[C@]6(CO)[C@H]4CC[C@]23C)C1`, for which the IC50 (in the experiment with SK-MEL-28; in experiment [1]; in the experiment on MRC5; in experiment [2]; in the experiment with MDA-MB-231) was at least 10000 nM each time.
With `CC1=C(COC(=O)c2ccc(Cl)cc2)C(=O)O[C@@H]([C@@H](C)[C@H]2CC[C@H]3[C@@H]4C[C@H]5O[C@]56[C@@H](O)C=CC(=O)[C@]6(COC(=O)c5ccc(Cl)cc5)[C@H]4CC[C@]23C)C1`, the IC50 amounted to 1110 nM in the experiment with SK-MEL-28; 4640 nM in experiment [1]; 2350 nM in the experiment with MRC5; 1900 nM in experiment [2]; 2620 nM with MDA-MB-231.
Consider `CC1=C(CO)C(=O)O[C@@H]([C@@H](C)[C@H]2CC[C@H]3[C@@H]4C[C@H]5O[C@]56[C@@H](OC(=O)c5ccc(Cl)cc5)C=CC(=O)[C@]6(CO)[C@H]4CC[C@]23C)C1`, for which the IC50 is 2250 nM in the experiment on SK-MEL-28; 1720 nM in experiment [1]; 2550 nM in the experiment with MRC5; 1850 nM in experiment [2]; 1400 nM in the experiment on MDA-MB-231.
Take `CCC(=O)OCC1=C(C)C[C@H]([C@@H](C)[C@H]2CC[C@H]3[C@@H]4C[C@H]5O[C@]56[C@@H](OC(=O)CC)C=CC(=O)[C@]6(COC(=O)CC)[C@H]4CC[C@]23C)OC1=O`: the IC50 in the experiment with SK-MEL-28 came out at 285 nM; in experiment [1], 1000 nM; in the experiment with MRC5, 615 nM; in experiment [2] it was 130 nM; with MDA-MB-231 it was 365 nM.
On the same counts, the results for `CC(=O)OCC1=C(C)C[C@H]([C@@H](C)[C@H]2CC[C@H]3[C@@H]4C[C@H]5O[C@]56[C@@H](O)C=CC(=O)[C@]6(COC(C)=O)[C@H]4CC[C@]23C)OC1=O` are 230 nM, 515 nM, 490 nM, 155 nM and 205 nM.
For the compound `CC(=O)O[C@H]1C=CC(=O)[C@]2(CO)[C@H]3CC[C@]4(C)[C@@H]([C@H](C)[C@H]5CC(C)=C(CO)C(=O)O5)CC[C@H]4[C@@H]3C[C@H]3O[C@]132`, the IC50 with SK-MEL-28 worked out at 1220 nM; in experiment [1], 2480 nM; in the experiment with MRC5, 1200 nM; in experiment [2] it was 570 nM; with MDA-MB-231, 890 nM.
On the same counts, the results for `CC(=O)OC[C@]12C(=O)C=C[C@H](O)[C@]13O[C@@H]3C[C@H]1[C@@H]3CC[C@H]([C@H](C)[C@H]4CC(C)=C(CO)C(=O)O4)[C@@]3(C)CC[C@@H]12` are 1230 nM, 3060 nM, 1800 nM, 780 nM and 1150 nM.
For `CC(=O)OCC1=C(C)C[C@H]([C@@H](C)[C@H]2CC[C@H]3[C@@H]4C[C@H]5O[C@]56[C@@H](O)C=CC(=O)[C@]6(CO)[C@H]4CC[C@]23C)OC1=O`, the IC50 in the experiment on SK-MEL-28 was determined as 705 nM; in experiment [1], 1220 nM; in the experiment with MRC5 it was 2300 nM; in experiment [2] it was 1050 nM; in the experiment on MDA-MB-231, 415 nM.
